Source: US20230159453A1 (COCRYSTAL PHARMA, INC., priority 2020, published 2023)

Molecular target: SARS2 protease (Severe acute respiratory syndrome coronavirus 2, UniProt P0DTD1)
Assay: SARS-CoV-2 protease inhibition assay (SARS2 FRET protease assay)
Assay type: biochemical
Settings: SARS-CoV-2 protease 25 nM, FRET, peptide substrate 1.3 μM, 30 minutes at 30° C., compounds 20 μM to 1.0 nM; read-out: IC50

| Structure (SMILES) | IC50 [µM] |
| --- | --- |
| CC(C)C[C@H](NC(=O)OC(c1ccc(Cl)cc1)C(C)(C)c1cccc(Cl)c1)C(=O)N[C@@H](C[C@@H]1CCNC1=O)C(=O)C(=O)NC1CC1 (stereo partly drawn) [Compound C226, 2-(3-chlorophenyl)-1-(4-chlorophenyl)-2-methylpropyl ((S)-1-(((S)-4-(cyclopropylamino)-3,4-dioxo-1-((S)-2-oxopyrrolidin-3-yl)butan-2-yl)amino)-4-methyl-1-oxopentan-2-yl)carbamate] | 0.057 |
| CC(C)(c1cccc(Cl)c1)C(OC(=O)N[C@@H](CC1CCCCC1)C(=O)N[C@@H](C[C@@H]1CCNC1=O)C(=O)C(N)=O)c1ccc2c(c1)CCC2 (stereo partly drawn) [Compound C131, 2-(3-Chlorophenyl)-1-(2,3-dihydro-1H-inden-5-yl)-2-methylpropyl ((S)-1-(((S)-4-amino-3,4-dioxo-1-((S)-2-oxopyrrolidin-3-yl)butan-2-yl)amino)-3-cyclohexyl-1-oxopropan-2-yl)carbamate] | 15.8 |
| CC(C)C[C@H](NC(=O)OC1CCCC1Cc1cccc(Cl)c1)C(=O)N[C@H](C=O)C[C@@H]1CCNC1=O (stereo partly drawn) [Compound C152, 2-(3-chlorobenzyl)cyclopentyl ((S)-4-methyl-1-oxo-1-(((S)-1-oxo-3-((S)-2-oxopyrrolidin-3-yl)propan-2-yl)amino)pentan-2-yl)carbamate] | 0.0118 |
| CC(C)CN1C(=O)N[C@@H](C[C@@H]2CCNC2=O)C(O)N1C(=O)OCc1ccccc1 (stereo partly drawn) [Compound C129, Benzyl (5S)-6-hydroxy-2-isobutyl-3-oxo-5-(((S)-2-oxopyrrolidin-3-yl)methyl)-1,2,4-triazinane-1-carboxylate] | > 20 |
| CCCCCOC(=O)N[C@@H](CC1CCCCC1)C(=O)N[C@@H](CCC(=O)N1CCOc2ccccc2C1)C(O)P(=O)(OCC)OCC (stereo partly drawn) [Compound C6, Pentyl ((2S)-3-cyclohexyl-1-(((2S)-1-(diethoxyphosphoryl)-5-(2,3-dihydrobenzo[f][1,4]oxazepin-4(5H)-yl)-1-hydroxy-5-oxopentan-2-yl)amino)-1-oxopropan-2-yl)carbamate] | > 200 |
| COc1cccc2[nH]c(C(=O)N[C@@H](CC(C)C)C(=O)NC(C=O)CC3CC4(CCCCC4)NC3=O)cc12 (stereo partly drawn) [Compound C214, 4-Methoxy-N-((2S)-4-methyl-1-oxo-1-((1-oxo-3-(2-oxo-1-azaspiro[4.5]decan-3-yl)propan-2-yl)amino)pentan-2-yl)-1H-indole-2-carboxamide] | 0.011 |
| CC(C)(C)OC(=O)N1CCC(OC(=O)N[C@@H](CC2CCCCC2)C(=O)N[C@H](C=O)CCC(=O)N2CCOc3ccccc3C2)CC1 [Compound C23, Tert-butyl 4-((((S)-3-cyclohexyl-1-(((S)-5-(2,3-dihydrobenzo[f][1, 4]oxazepin-4(5H)-yl)-1,5-dioxopentan-2-yl)amino)-1-oxopropan-2-yl)carbamoyl)oxy)piperidine-1-carboxylate] | > 200 |
| O=C[C@H](CC1CCN(CCc2ccccc2)C1=O)NC(=O)[C@H](CC1CCCCC1)NC(=O)OCc1cccc(Cl)c1 (stereo partly drawn) [Compound C27, 3-Chlorobenzyl ((2S)-3-cyclohexyl-1-oxo-1-((1-oxo-3-(2-oxo-1-phenethylpyrrolidin-3-yl)propan-2-yl)amino)propan-2-yl) carbamate] | > 200 |
| CC(C)C[C@H](NC(=O)O[C@H](c1ccccc1)C(C)(C)c1cccc(Cl)c1)C(=O)N[C@H](C=O)C[C@@H]1CCNC1=O [Compound C276] | 0.06 |
| CC(C)(C)C(OC(=O)N[C@@H](CC1CCCCC1)C(=O)N[C@@H](C[C@@H]1CCNC1=O)C(=O)C(N)=O)c1ccccc1 (stereo partly drawn) [Compound C231, 2,2-Dimethyl-1-phenylpropyl ((S)-1-(((S)-4-amino-3,4-dioxo-1-((S)-2-oxopyrrolidin-3-yl)butan-2-yl)amino)-3-cyclohexyl-1-oxopropan-2-yl) carbamate] | 1.8 |
| CC(C)C[C@H](NC(=O)OC(Cc1ccccc1)c1ccccc1)C(=O)N[C@@H](C[C@@H]1CCNC1=O)C(O)S(=O)(=O)O (stereo partly drawn) [Compound C53, (2S)-2-((2S)-2-(((1,2-Diphenylethoxy)carbonyl)amino)-4-methylpentanamido)-1-hydroxy-3-((S)-2-oxopyrrolidin-3-yl)propane-1-sulfonate] | 0.04 |
| O=C[C@H](C[C@@H]1CCNC1=O)NC(=O)[C@H](CC1CCCCC1)NC(=O)OC(c1cccc(Cl)c1)C1(c2cccc(Cl)c2)CC1 (stereo partly drawn) [Compound C250, (3-Chlorophenyl)(1-(3-chlorophenyl)cyclopropyl)methyl ((S)-3-cyclohexyl-1-oxo-1-(((S)-1-oxo-3-((S)-2-oxopyrrolidin-3-yl)propan-2-yl)amino)propan-2-yl)carbamate] | 0.01 |
| CCOC(=O)/C=C/[C@H](C[C@@H]1CCNC1=O)NC(=O)[C@H](CC(C)C)NC(=O)OC(Cc1ccccc1)c1ccccc1 (stereo partly drawn) [Compound C232, Ethyl (4S, E)-4-((2S)-2-(((1,2-diphenylethoxy)carbonyl)amino)-4-methylpentanamido)-5-((S)-2-oxopyrrolidin-3-yl) pent-2-enoate] | 15.1 |
| CC(C)C[C@H](NC(=O)OC(c1ccccc1)C(C)(C)c1cccc(Cl)c1)C(=O)N[C@@H](C[C@@H]1CCNC1=O)C(=O)C(=O)N1CCCCC1 (stereo partly shown) [Compound C270] | 4.41 |
| CC(C)C[C@H](NC(=O)OC(c1ccc(F)cc1)C(C)(C)c1cccc(Cl)c1)C(=O)N[C@@H](C[C@@H]1CCNC1=O)C(=O)C(=O)NC1CC1 (stereo partly shown) [Compound C247] | 0.08 |
| CCCOC(=O)N[C@@H](CC1CCCCC1)C(=O)N[C@@H](CCC(=O)N1CCOc2ccccc2C1)C(O)P(=O)(OCC)OCC (stereo partly drawn) [Compound C19, Propyl ((2S)-3-cyclohexyl-1-(((2S)-1-(diethoxyphosphoryl)-5-(2,3-dihydrobenzo[f][1,4]oxazepin-4(5H)-yl)-1-hydroxy-5-oxopentan-2-yl)amino)-1-oxopropan-2-yl)carbamate] | 94.3 |
| CCOP(=O)(OCC)C(O)[C@H](CCC(=O)N1CCNCc2ccccc21)NC(=O)[C@H](CC1CCCCC1)NC(=O)OCc1cccc(Cl)c1 (stereo partly shown) [Compound C3] | > 200 |
| CC(=O)N1CCC2(CC1)CC(CC(C=O)NC(=O)[C@H](CC1CCCCC1)NC(=O)OCc1cccc(Cl)c1)C(=O)N2 (stereo partly drawn) [Compound C32, 3-Chlorobenzyl ((2S)-1-((1-(8-acetyl-2-oxo-1,8-diazaspiro[4.5]decan-3-yl)-3-oxopropan-2-yl)amino)-3-cyclohexyl-1-oxopropan-2-yl)carbamate] | 0.023 |
| CC(C)C[C@H](NC(=O)OC(c1ccc(Cl)cc1)C1(c2cccc(Cl)c2)CC1)C(=O)N[C@@H](C[C@@H]1CCNC1=O)C(=O)C(=O)NC1CC1 (stereo partly drawn) [Compound C201, (4-Chlorophenyl)(1-(3-chlorophenyl)cyclopropyl) methyl ((S)-1-(((S)-4-(cyclopropylamino)-3,4-dioxo-1-((S)-2-oxopyrrolidin-3-yl)butan-2-yl)amino)-4-methyl-1-oxopentan-2-yl) carbamate] | 0.0044 |
| CCCOC(=O)N[C@@H](CC1CCCCC1)C(=O)N[C@H](C=O)CCC(=O)N1CCOc2ccccc2C1 [Compound C18, Propyl ((S)-3-cyclohexyl-1-(((S)-5-(2,3-dihydrobenzo[f][1,4]oxazepin-4(5H)-yl)-1,5-dioxopentan-2-yl)amino)-1-oxopropan-2-yl)carbamate] | 49.3 |
| CC(C)C[C@H](NC(=O)OC1(Cc2ccccc2)CCC1)C(=O)N[C@@H](C[C@@H]1CCNC1=O)C(=O)CCl [Compound C194, 1-Benzylcyclobutyl ((S)-1-(((S)-4-chloro-3-oxo-1-((S)-2-oxopyrrolidin-3-yl)butan-2-yl)amino)-4-methyl-1-oxopentan-2-yl) carbamate] | 0.485 |
| CCOP(=O)(OCC)C(O)[C@H](CCC(=O)N1CCN(C(=O)OC(C)(C)C)C(c2ccccc2)C1)NC(=O)[C@H](CC1CCCCC1)NC(=O)OCc1cccc(Cl)c1 (stereo partly drawn) [Compound C1, tert-butyl 4-((4S)-4-((S)-2-((((3-chlorobenzyl)oxy)carbonyl)amino)-3-cyclohexylpropanamido)-5-(diethoxyphosphoryl)-5-hydroxypentanoyl)-2-phenylpiperazine-1-carboxylate] | > 200 |
| O=C[C@H](C[C@@H]1CCNC1=O)NC(=O)[C@H](CC1CCCCC1)NC(=O)OC(Cc1cccc(Cl)c1)c1cccc(Cl)c1 (stereo partly drawn) [Compound C272, 1,2-Bis(3-chlorophenyl)ethyl ((S)-3-cyclohexyl-1-oxo-1-(((S)-1-oxo-3-((S)-2-oxopyrrolidin-3-yl)propan-2-yl)amino)propan-2-yl)carbamate] | 0.32 |
| CC(C)(c1cccc(Cl)c1)C(OC(=O)N[C@@H](CC1CCCCC1)C(=O)N[C@H](C=O)C[C@@H]1CCNC1=O)c1cccc(F)c1 (stereo partly drawn) [Compound C105, 2-(3-Chlorophenyl)-1-(3-fluorophenyl)-2-methylpropyl ((S)-3-cyclohexyl-1-oxo-1-(((S)-1-oxo-3-((S)-2-oxopyrrolidin-3-yl)propan-2-yl)amino)propan-2-yl)carbamate] | 0.0006 |
| O=C(N[C@@H](CC1CCCCC1)C(=O)N[C@@H](C[C@@H]1CCNC1=O)C(O)S(=O)(=O)O)OC(Cc1cccc(Cl)c1)c1ccccc1 (stereo partly drawn) [Compound C115, Sodium (2S)-2-((2S)-2-(((2-(3-chlorophenyl)-1-phenylethoxy)carbonyl)amino)-3-cyclohexylpropanamido)-1-hydroxy-3-((S)-2-oxopyrrolidin-3-yl)propane-1-sulfonate] | 0.0157 |
| CC(C)C[C@H](NC(=O)OC(c1ccccc1)C1(c2cccc(Cl)c2)CCCC1)C(=O)N[C@H](C=O)C[C@@H]1CCNC1=O (stereo partly shown) [Compound C278] | 0.02 |
| CC(C)C[C@H](NC(=O)OC1(Cc2ccccc2)CCC1)C(=O)N[C@H](C=O)C[C@@H]1CCNC1=O [Compound C56, 1-benzylcyclobutyl ((S)-4-methyl-1-oxo-1-(((S)-1-oxo-3-((S)-2-oxopyrrolidin-3-yl)propan-2-yl)amino)pentan-2-yl)carbamate] | 0.6 |
| CCOP(=O)(OCC)C(O)[C@H](CCC(=O)N1CCOc2ccccc2C1)NC(=O)[C@H](CC1CCCCC1)NC(=O)OC1CCN(C(=O)OC(C)(C)C)CC1 (stereo partly drawn) [Compound C13, Tert-butyl 4-((((2S)-3-cyclohexyl-1-(((2S)-1-(diethoxyphosphoryl)-5-(2,3-dihydrobenzo[f][1,4]oxazepin-4(5H)-yl)-1-hydroxy-5-oxopentan-2-yl)amino)-1-oxopropan-2-yl)carbamoyl)oxy)piperidine-1-carboxylate] | > 200 |
